Patent US10919877B2, “Multifunctional inhibitors of MEK/PI3K and mTOR/MEK/PI3K biological pathways and therapeutic methods using the same” (THE REGENTS OF THE UNIVERSITY OF MICHIGAN, priority 2016, dated 2021)
Several values for one entry are separate records, joined by “and”; a condition that tells them apart may be missing. Identical values can stand only once. Like-named read-outs stand apart in the source and are kept apart here.

Legend:
[1] = biological target: T1, PI3Kα (Homo sapiens, UniProt P42336); experiment: PI3K subtype enzyme inhibition; format: biochemical
T1 construct: purchased Life Technologies (assay run by the vendor)
T1 sequence (P42336 whole entry): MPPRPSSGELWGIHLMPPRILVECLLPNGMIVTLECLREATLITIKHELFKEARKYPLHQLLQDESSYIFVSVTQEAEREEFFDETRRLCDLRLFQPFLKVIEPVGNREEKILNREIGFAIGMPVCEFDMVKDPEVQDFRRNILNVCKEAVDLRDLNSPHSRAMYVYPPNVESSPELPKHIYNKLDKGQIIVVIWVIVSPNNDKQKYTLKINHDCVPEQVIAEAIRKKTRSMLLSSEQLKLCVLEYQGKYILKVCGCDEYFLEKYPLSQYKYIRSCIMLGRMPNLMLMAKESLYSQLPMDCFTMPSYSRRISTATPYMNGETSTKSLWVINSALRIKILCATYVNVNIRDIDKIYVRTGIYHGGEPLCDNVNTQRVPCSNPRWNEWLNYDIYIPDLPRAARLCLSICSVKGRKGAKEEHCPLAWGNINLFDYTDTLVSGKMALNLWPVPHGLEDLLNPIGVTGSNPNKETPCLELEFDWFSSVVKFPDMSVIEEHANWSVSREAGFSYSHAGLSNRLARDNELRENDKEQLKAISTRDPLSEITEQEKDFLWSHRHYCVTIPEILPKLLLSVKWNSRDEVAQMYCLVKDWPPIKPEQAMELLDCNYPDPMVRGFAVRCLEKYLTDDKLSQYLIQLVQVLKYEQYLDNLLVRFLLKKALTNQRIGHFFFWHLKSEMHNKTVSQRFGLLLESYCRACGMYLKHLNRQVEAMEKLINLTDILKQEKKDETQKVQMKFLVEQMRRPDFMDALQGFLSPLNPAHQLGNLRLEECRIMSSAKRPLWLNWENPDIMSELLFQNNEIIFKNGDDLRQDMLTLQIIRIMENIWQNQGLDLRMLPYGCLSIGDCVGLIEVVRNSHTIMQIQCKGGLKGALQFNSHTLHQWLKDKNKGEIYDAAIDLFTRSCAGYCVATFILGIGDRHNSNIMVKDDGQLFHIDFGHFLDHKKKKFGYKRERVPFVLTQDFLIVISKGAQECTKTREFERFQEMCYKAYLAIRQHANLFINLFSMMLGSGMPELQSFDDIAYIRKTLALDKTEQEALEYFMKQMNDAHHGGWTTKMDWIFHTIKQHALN
T1 sequence (P27986 whole entry partner): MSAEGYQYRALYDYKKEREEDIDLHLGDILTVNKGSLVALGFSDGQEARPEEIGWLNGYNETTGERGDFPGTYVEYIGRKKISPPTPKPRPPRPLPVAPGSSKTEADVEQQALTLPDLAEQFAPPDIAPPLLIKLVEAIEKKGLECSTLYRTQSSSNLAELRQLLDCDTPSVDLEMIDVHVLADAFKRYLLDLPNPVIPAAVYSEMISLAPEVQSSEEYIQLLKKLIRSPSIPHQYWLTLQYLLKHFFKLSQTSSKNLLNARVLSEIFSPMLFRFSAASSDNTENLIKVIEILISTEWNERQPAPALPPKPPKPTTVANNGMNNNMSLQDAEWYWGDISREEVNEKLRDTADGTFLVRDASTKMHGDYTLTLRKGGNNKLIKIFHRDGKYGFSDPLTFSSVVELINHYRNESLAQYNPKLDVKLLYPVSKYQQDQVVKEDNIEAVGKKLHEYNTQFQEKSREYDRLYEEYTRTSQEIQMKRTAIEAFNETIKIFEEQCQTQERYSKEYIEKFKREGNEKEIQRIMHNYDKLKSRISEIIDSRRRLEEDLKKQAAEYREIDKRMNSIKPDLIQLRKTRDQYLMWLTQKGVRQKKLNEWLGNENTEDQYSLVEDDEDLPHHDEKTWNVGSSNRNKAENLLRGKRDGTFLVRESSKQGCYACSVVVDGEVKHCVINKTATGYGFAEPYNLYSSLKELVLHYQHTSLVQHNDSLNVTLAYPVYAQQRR

[2] = biological target: T2, PI3Kβ (Homo sapiens, UniProt P42338); experiment: PI3K subtype enzyme inhibition; format: biochemical
T2 construct: purchased Life Technologies (assay run by the vendor)
T2 sequence (P42338 whole entry): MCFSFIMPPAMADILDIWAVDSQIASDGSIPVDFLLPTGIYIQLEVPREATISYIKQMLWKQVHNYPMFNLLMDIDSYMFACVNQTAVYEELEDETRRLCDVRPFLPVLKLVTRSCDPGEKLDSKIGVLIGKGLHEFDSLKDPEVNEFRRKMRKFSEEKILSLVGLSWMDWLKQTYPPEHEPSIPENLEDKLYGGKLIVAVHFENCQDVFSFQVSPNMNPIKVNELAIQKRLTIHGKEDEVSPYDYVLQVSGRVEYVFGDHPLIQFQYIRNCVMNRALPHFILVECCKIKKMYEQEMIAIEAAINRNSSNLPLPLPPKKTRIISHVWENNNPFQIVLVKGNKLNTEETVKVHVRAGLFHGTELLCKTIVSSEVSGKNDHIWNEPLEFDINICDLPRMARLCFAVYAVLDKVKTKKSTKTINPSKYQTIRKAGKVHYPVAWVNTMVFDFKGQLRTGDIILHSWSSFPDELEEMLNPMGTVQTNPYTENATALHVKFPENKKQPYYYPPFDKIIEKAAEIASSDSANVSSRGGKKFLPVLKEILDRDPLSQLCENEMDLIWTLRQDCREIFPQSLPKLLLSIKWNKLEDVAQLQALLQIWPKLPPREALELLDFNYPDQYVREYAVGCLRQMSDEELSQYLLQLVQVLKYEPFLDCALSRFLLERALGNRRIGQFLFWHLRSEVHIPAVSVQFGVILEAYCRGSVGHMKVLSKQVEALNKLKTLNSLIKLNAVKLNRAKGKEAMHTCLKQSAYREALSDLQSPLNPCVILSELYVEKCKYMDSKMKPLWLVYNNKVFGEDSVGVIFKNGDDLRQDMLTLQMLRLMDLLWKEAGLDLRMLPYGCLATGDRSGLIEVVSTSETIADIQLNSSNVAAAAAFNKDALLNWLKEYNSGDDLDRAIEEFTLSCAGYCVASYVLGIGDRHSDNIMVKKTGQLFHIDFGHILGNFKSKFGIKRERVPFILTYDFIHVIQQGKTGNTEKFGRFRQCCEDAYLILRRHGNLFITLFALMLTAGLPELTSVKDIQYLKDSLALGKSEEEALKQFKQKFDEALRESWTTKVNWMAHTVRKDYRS
T2 sequence (P27986 whole entry partner): as the sequence (P27986 whole entry partner) above

[3] = biological target: mTOR (Homo sapiens, UniProt P42345); experiment: mTOR enzyme inhibition; format: biochemical
[4] = biological target: T3, PI3Kγ (Homo sapiens, UniProt P48736); experiment: PI3K subtype enzyme inhibition; format: biochemical
T3 construct: purchased Life Technologies (assay run by the vendor)
T3 sequence (P48736 whole entry): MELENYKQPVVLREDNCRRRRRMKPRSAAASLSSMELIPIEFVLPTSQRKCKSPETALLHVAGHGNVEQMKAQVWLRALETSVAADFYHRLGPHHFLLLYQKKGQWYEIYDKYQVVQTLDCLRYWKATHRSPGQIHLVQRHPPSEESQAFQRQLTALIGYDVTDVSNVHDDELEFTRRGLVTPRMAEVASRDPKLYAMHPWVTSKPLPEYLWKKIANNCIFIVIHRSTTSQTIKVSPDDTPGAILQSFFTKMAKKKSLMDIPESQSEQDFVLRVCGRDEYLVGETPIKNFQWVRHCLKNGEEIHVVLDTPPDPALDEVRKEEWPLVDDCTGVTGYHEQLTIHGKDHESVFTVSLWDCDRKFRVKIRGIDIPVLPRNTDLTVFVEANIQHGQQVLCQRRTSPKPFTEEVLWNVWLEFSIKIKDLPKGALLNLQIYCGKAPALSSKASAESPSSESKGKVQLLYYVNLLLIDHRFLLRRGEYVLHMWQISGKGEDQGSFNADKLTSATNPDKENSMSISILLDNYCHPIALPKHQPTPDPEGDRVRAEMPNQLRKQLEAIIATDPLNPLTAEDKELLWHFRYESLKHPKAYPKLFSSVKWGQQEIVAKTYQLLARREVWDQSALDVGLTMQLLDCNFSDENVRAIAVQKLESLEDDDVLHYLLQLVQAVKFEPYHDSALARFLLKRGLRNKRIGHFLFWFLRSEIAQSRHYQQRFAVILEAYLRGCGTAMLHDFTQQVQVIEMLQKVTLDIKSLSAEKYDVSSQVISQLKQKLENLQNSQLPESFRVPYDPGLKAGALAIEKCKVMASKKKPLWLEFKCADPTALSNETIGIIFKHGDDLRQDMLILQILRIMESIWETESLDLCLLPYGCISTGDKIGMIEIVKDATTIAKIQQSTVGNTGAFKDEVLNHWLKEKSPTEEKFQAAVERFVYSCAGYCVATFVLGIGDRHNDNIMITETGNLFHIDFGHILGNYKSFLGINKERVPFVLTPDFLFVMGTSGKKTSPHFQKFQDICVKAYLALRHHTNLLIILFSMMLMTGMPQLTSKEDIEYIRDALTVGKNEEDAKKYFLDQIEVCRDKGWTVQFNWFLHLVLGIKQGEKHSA

[5] = biological target: T4, PI3Kδ (Homo sapiens, UniProt O00329); experiment: PI3K subtype enzyme inhibition; format: biochemical
T4 construct: purchased Life Technologies (assay run by the vendor)
T4 sequence (O00329 whole entry): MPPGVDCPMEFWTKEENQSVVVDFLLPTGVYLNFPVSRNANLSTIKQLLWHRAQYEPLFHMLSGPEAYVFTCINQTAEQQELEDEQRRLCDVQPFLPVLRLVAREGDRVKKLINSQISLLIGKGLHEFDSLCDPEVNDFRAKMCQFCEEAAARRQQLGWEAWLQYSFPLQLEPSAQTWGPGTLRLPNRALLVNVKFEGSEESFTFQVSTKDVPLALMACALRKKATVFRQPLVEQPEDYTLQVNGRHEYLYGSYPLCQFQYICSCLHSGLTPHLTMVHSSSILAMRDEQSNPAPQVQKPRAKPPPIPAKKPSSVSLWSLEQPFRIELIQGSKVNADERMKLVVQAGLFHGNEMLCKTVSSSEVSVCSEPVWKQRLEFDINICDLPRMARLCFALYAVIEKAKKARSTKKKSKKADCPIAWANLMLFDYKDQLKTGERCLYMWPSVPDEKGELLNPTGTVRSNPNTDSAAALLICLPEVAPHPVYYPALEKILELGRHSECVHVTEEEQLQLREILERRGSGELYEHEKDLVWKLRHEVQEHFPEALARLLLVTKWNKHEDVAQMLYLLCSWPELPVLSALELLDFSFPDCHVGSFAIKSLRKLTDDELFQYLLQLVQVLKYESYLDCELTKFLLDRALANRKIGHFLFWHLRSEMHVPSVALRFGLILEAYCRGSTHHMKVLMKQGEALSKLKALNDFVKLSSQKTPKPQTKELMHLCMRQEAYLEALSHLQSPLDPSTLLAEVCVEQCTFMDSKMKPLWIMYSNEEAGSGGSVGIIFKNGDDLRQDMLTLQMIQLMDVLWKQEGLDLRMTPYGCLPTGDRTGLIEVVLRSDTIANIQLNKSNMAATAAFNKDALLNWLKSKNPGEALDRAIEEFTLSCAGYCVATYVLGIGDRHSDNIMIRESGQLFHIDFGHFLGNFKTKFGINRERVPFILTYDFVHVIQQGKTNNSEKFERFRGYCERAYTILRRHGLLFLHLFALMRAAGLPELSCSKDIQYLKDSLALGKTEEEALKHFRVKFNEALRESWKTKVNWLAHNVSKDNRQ
T4 sequence (P27986 whole entry partner): as the sequence (P27986 whole entry partner) above

[6] = test system: pAkt in A549 and D54 cells; experiment: Cellular PI3K inhibition, Western blot of pAkt in cultured tumor cells; format: cell-based, human; settings: 1 hour; for PI3K activity indicated by level of pAKT: cultured A549 cells, Western blot vs DMSO
Protocol: The in vitro MEK1 and PI3K inhibitory activity of these series of compounds was also assessed in cultured tumor cells (D54, A549). Cellular efficacy of MEK1 and PI3K inhibition by inhibitor compounds was measured by changes in phosphorylation of pErk1/2 and pAkt, respectively. […] Cells were incubated in the presence of indicated compounds for 1 hour and lysates probed with specific antibodies against pAKT and pERK 1/2 and compared with vehicle control (DMSO). A549 (FIG. 2A) and D54 (FIG. 2B) cells were treated with inhibitors at the indicated concentrations for 1 hour and subjected to Western blot analysis.
Western Blot Analysis. Cells were seeded in six-well dishes 24 hours prior to treatment and incubated with the respective inhibitor compound solutions for 1 h. Cells were washed with phosphatebuffered saline (PBS) and lysed with NP-40 lysis buffer (1% NP40, 150 mM NaCl, and 25 mM Tris, pH 8.0) supplemented with protease inhibitors (Complete protease inhibitor cocktail, Roche, Basel, Switzerland) and phosphatase inhibitors (PhosSTOP, Roche, Basel, Switzerland). Concentration of protein was determined using Lowry assays (Bio-Rad, Hercules, Calif.), and equal amounts of whole cell protein lysate were loaded in each lane and resolved using 4-12% gradient Bis-Tris gel (Invitrogen, CA). Proteins were transferred to 0.2 μm nitrocellulose membranes (Invitrogen, CA). Membranes were incubated overnight at 4° C. with primary antibodies after blocking, followed by incubation with appropriate horseradish peroxidase (HRP) conjugated secondary antibody at room temperature for 1 hour. ECL-Plus was used to detect the activity of peroxidase according to the manufacturer's protocol (Amersham Pharmacia, Uppsala, Sweden). Antibodies raised against phospho-p44/42 MAPK (Erk1/2) (Thr202/Tyr204), pAKT(5473), phospho-p70 S6K* and total ERK, AKT antibodies were purchased from Cell Signaling Technology (Beverly, Mass., USA), and anti-β actin (conjugated with HRP) was purchased from Abcam (Cambridge, Mass., USA). Secondary HRP antibodies were purchased from Jackson ImmunoResearch (St. Louis, Mo., USA).

[7] = test system: pErk1/2 in A549 and D54 cells; experiment: Cellular MEK1 inhibition, Western blot of pErk1/2 in cultured tumor cells; format: cell-based, human; settings: A549 and D54 cell lines, 1 hour
Protocol: Western Blot Analysis. […] Cells were washed with phosphatebuffered saline (PBS) and lysed with NP-40 lysis buffer (1% NP40, 150 mM NaCl, and 25 mM Tris, pH 8.0) supplemented with protease inhibitors (Complete protease inhibitor cocktail, Roche, Basel, Switzerland) and phosphatase inhibitors (PhosSTOP, Roche, Basel, Switzerland). […] Proteins were transferred to 0.2 μm nitrocellulose membranes (Invitrogen, CA). Membranes were incubated overnight at 4° C. with primary antibodies after blocking, followed by incubation with appropriate horseradish peroxidase (HRP) conjugated secondary antibody at room temperature for 1 hour. ECL-Plus was used to detect the activity of peroxidase according to the manufacturer's protocol (Amersham Pharmacia, Uppsala, Sweden).

[8] = test system: Akt phosphorylation; experiment: In vivo PI3K inhibition in flank D54 and A549 tumor bearing mice (Western blot); settings: D54 and A549 tumors; compound 14: 375 mg/kg oral gavage, 2 h
[9] = test system: D54 glioma cells; experiment: Cell viability, AlamarBlue assay; format: cell-based, human; settings: dose dependence
[10] = test system: A549 lung tumor cells; experiment: Cell viability, AlamarBlue assay; format: cell-based, human; settings: dose dependence
[11] = test system: ERK1/2 phosphorylation; experiment: In vivo MEK1 inhibition in flank D54 and A549 tumor bearing mice (Western blot); settings: D54 and A549 tumors; compound 14: 375 mg/kg oral gavage, 2 h
Protocol: Four athymic nude Foxn1nu mice were used to evaluate oncogenic target modulation activity in vivo.
In Vivo Evaluation of Inhibitor Efficacy.
Each injectate contained a total volume of 200 μL of cell suspension in 50% RPMI medium mixed with 50% BD Matrigel basement membrane matrix (Becton, Dickinson and Company, East Rutherford, N.J.). […] Tumor tissues were collected from both vehicle and drug-treated groups and subjected to Western blot analysis as previously described.

[12] = biological target: PI3K (Homo sapiens, UniProt P42336); experiment: In vitro PI3K inhibition assay (Adapta TR-FRET); format: biochemical; settings: average of three experiments each conducted in duplicate
Protocol: In Vitro PI3K Inhibition Assays.
Quantitation of PI3K lipid kinase activity was carried out by Life Technologies (Madison, Wis.) with purified enzyme using the fluorescence-based Adapta TR-FRET assay protocol. Assays were conducted in triplicate with various inhibitor concentrations (0.1 nM to 10 μM).

[13] = biological target: T5, MEK1 (Homo sapiens, UniProt Q02750); experiment: In vitro MEK1 inhibition assay (Kinase-Glo luminescent kinase assay); format: biochemical; settings: average of three experiments each conducted in duplicate
T5 construct: purchased Sigma-Aldrich
Protocol: In Vitro MEK1 Inhibition Assays.
In vitro MEK1 inhibition activity of inhibitor analogs were determined using Kinase-Glo luminescent kinase assay kits from Promega (WI, USA) per manufacturer's instructions. […] Briefly, series of compound dilutions were added in 96-well plates, followed by MEK1, Erk2, and ATP solutions. Kinase reactions were run at 30° C. for 30 minutes. Equal volumes of Kinase-Glo solution were then added, and reactions were incubated at room temperature for a further 30 minutes. Bioluminescence signals were acquired with an Envision multilabel reader from Perkin Elmer. Assays were conducted in triplicate with various inhibitor concentrations each run in duplicate. IC50 data were calculated using GraphPad Prism software (version 5.0, La Jolla, Calif.).

[14] = test system: A375 (melanoma), D54 (glioma), CT26 colorectal cancer, A2058 (melanoma) cell lines; experiment: Concurrent inhibition in tumor cell lines (multifunctional inhibitors); format: cell-based
From the text: The synthesis of another series of single entity, multifunctional inhibitors achieved by covalent linking of structural analogs of a PI3K inhibitor mTOR inhibitor, and an MEK inhibitor is also disclosed.

[15] = read-out: PI3K Subtype Enzyme Inhibition Data IC50 PI3Kβ
[16] = table of additional PI3K inhibitors, read-out: PI3Kβ IC50
[17] = read-out: PI3K Subtype Enzyme Inhibition Data IC50 PI3Kγ
[18] = table of additional PI3K inhibitors, read-out: PI3Kγ IC50
[19] = read-out: PI3K Subtype Enzyme Inhibition Data IC50 PI3Kδ
[20] = read-out: PI3K Subtype Enzyme Inhibition Data IC50 PI3Kα
[21] = table of additional PI3K inhibitors, read-out: PI3Kδ IC50
[22] = table of additional PI3K inhibitors, read-out: PI3Kα IC50

SMILES	IC50 [2, 15] [µM]	IC50 [2, 16] [µM]	IC50 [4, 17] [µM]	IC50 [4, 18] [µM]	IC50 [5, 19] [µM]	IC50 [1, 20] [µM]	IC50 [5, 21] [µM]	IC50 [1, 22] [µM]	also measured
NOCCOCCOCCOCCC(=O)N1CCN(c2cnc3ccc(-c4cnc(Cl)c(NS(=O)(=O)c5ccc(F)cc5)c4)cc3n2)CC1 [ST-5-29]	–	–	–	–	–	–	–	–	IC50 ([1]; read-out: PI3Kα IC50): < 0.000495 µM; IC50 ([2]; read-out: PI3Kβ IC50): 0.00133 ± 0.00059 µM; IC50 [3]: 0.00677 ± 0.00043 µM; IC50 ([4]; read-out: PI3Kγ IC50): 0.0302 ± 0.00014 µM
CC(=O)N1CCN(c2nc(N3CCOCC3)nc(-n3c(C(F)F)nc4ccccc43)n2)CC1 [ST-5-03]	0.0143 ± 0.0025	0.0143 ± 0.0025	0.021 ± 0.001	0.021 ± 0.001	–	–	–	–	–
O=S(=O)(Nc1cc(-c2ccc3ncc(N4CCNCC4)nc3c2)cnc1Cl)c1ccc(F)cc1 [ST-5-27]	–	–	–	–	–	–	–	–	IC50 ([5]; read-out: PI3Kδ IC50): 0.00083 ± 6e-05 µM; IC50 ([1]; read-out: PI3Kα IC50): < 0.000495 µM; IC50 ([2]; read-out: PI3Kβ IC50): 0.477 ± 0.00092 µM; IC50 [3]: 0.00597 ± 0.00027 µM; IC50 ([4]; read-out: PI3Kγ IC50): 0.514 ± 0.00023 µM
O=C(NOCCNCCCCCC(=O)N1CCN(c2nc(N3CCOCC3)nc(-n3c(C(F)F)nc4ccccc43)n2)CC1)c1ccc(F)c(F)c1Nc1ccc(I)cc1F [Compound 9, N-(2-((6-(4-(4-(2-(Difluoromethyl)-1H-benzo[d]imidazol-1-yl)-6-morpholino-1,3,5-triazin-2-yl)piperazin-1-yl)-6-oxohexyl)amino)ethoxy)-3,4-difluoro-2-((2-fluoro-4-iodophenyl)amino)benzamide]	–	–	–	–	–	–	–	–	PI3K inhibition in cells ([6]; A549 and D54 cell lines, Western blot): most pronounced; PI3K activity indicated by level of pAKT [6]: high potency in inhibiting PI3K activity; MEK inhibition in cells [7]: most pronounced; phosphorylation of Akt (PI3K activity) in excised tumor tissue [8]: modulation of ERK1/2 and pAkt levels was also achieved; cell viability [9]: as effective as the combination of ZSTK474 and PD0325901; cell viability [10]: as effective as the combination of ZSTK474 and PD0325901; phosphorylation of ERK1/2 (MEK1 activity) in excised tumor tissue [11]: modulation of ERK1/2 and pAkt levels was also achieved
O=C(NOCCNCCCCS(=O)(=O)N1CCN(c2nc(N3CCOCC3)nc(-n3c(C(F)F)nc4ccccc43)n2)CC1)c1ccc(F)c(F)c1Nc1ccc(I)cc1F [Compound 11]	–	–	–	–	–	–	–	–	IC50 [12]: 0.191 to 0.341 µM and 0.285 µM; IC50 [13]: 0.0567 ± 0.0013 µM
CC(=O)NCCNc1nc(N2CCOCC2)nc(-n2c(C(F)F)nc3ccccc32)n1 [ST-5-22]	0.199 ± 0.012	–	0.054 ± 0.0015	–	0.0095 ± 0.0024	0.0166 ± 0.0014	–	–	–
CNCCNc1nc(N2CCOCC2)nc(-n2c(C(F)F)nc3ccccc32)n1 [ST-5-02]	2.9 ± 0.375	2.9 ± 0.375	0.681 ± 0.09	0.681 ± 0.09	0.135 ± 0.019	0.248 ± 0.024	0.135 ± 0.019	0.248 ± 0.024	–
O=C(O)CCNc1nc(N2CCOCC2)nc(-n2c(C(F)F)nc3ccccc32)n1 [ST-5-25]	0.787 ± 0.106	0.787 ± 0.106	0.0223 ± 0.0007	0.0223 ± 0.0007	0.06 ± 0.0034	0.0124 ± 0.0007	0.06 ± 0.0034	0.0124 ± 0.0007	–
CC(=O)N1CCN(c2cnc3ccc(-c4cnc(Cl)c(NS(=O)(=O)c5ccc(F)cc5)c4)cc3n2)CC1 [ST-5-28]	–	–	–	–	–	–	–	–	IC50 ([5]; read-out: PI3Kδ IC50): < 0.000495 µM; IC50 ([1]; read-out: PI3Kα IC50): < 0.000495 µM; IC50 ([2]; read-out: PI3Kβ IC50): 0.00536 ± 0.0011 µM; IC50 [3]: 0.00313 ± 0.00014 µM; IC50 ([4]; read-out: PI3Kγ IC50): 0.00071 ± 0.0002 µM
O=C(CNCCONC(=O)c1ccc(F)c(F)c1Nc1ccc(I)cc1F)NCCCCCC(=O)N1CCN(c2nc(N3CCOCC3)nc(-n3c(C(F)F)nc4ccccc43)n2)CC1 [Compound 7, N-(2-((2-((6-(4-(4-(2-(Difluoromethyl)-1H-benzo[d]imidazol-1-yl)-6-morpholino-1,3,5-triazin-2-yl)piperazin-1-yl)-6-oxohexyl)amino)-2-oxoethyl)amino)ethoxy)-3,4-difluoro-2-((2-fluoro-4-iodophenyl)amino)benzamide]	–	–	–	–	–	–	–	–	PI3K activity indicated by level of pAKT [6]: high potency in inhibiting PI3K activity; IC50 [13]: 0.0005 ± 0.0012 µM
CN(CCOCCOCCONC(=O)c1ccc(F)c(F)c1Nc1ccc(I)cc1F)CC[N+](C)(C)CCOCCOCCC(=O)N1CCN(c2nc(N3CCOCC3)nc(-n3c(C(F)F)nc4ccccc43)n2)CC1 [ST-5-05]	2.52 ± 0.557	–	2.59 ± 0.66	–	0.056 ± 0.013	0.039 ± 0.002	–	–	–
O=C(NOCCOCCOCCOCCC(=O)N1CCN(c2cnc3ccc(-c4cnc(Cl)c(NS(=O)(=O)c5ccc(F)cc5)c4)cc3n2)CC1)c1ccc(F)c(F)c1Nc1ccc(I)cc1F [ST-182]	–	–	–	–	–	–	–	–	IC50 ([5]; read-out: PI3Kδ IC50): 0.00422 ± 0.00064 µM; IC50 ([1]; read-out: PI3Kα IC50): 0.002 ± 0.0003 µM; IC50 ([2]; read-out: PI3Kβ IC50): 0.467 ± 0.044 µM; IC50 [3]: 0.0531 ± 0.0025 µM; IC50 ([4]; read-out: PI3Kγ IC50): 0.0341 ± 0.003 µM
CNC(=O)CCNc1nc(N2CCOCC2)nc(-n2c(C(F)F)nc3ccccc32)n1 [ST-5-21]	0.431 ± 0.083	0.431 ± 0.083	0.067 ± 0.0028	0.067 ± 0.0028	0.026 ± 0.0049	0.02 ± 0.0004	0.026 ± 0.0049	0.02 ± 0.0004	–
COCCNc1nc(N2CCOCC2)nc(-n2c(C(F)F)nc3ccccc32)n1 [ST-178]	0.208 ± 0.015	0.208 ± 0.015	0.064 ± 0.005	0.064 ± 0.005	0.017 ± 0.001	0.02 ± 0.003	0.017 ± 0.001	0.02 ± 0.003	–
OCCNc1nc(N2CCOCC2)nc(-n2c(C(F)F)nc3ccccc32)n1 [ST-187]	0.071 ± 0.008	0.071 ± 0.008	0.054 ± 0.001	0.054 ± 0.001	0.0081 ± 0.0017	0.0099 ± 0.0012	0.0081 ± 0.0017	0.0099 ± 0.0012	–
NOCCOCCOCCOCCC(=O)N1CCN(c2nc(N3CCOCC3)nc(-n3c(C(F)F)nc4ccccc43)n2)CC1 [ST-167]	0.214 ± 0.049	0.214 ± 0.049	0.14 ± 0.0066	0.14 ± 0.0066	–	–	–	–	–
NCCNc1nc(N2CCOCC2)nc(-n2c(C(F)F)nc3ccccc32)n1 [ST-177]	2.12 ± 0.444	2.12 ± 0.444	0.771 ± 0.063	0.771 ± 0.063	0.291 ± 0.032	0.292 ± 0.031	0.291 ± 0.032	0.292 ± 0.031	–
CN(CCOCCOCCONC(=O)c1ccc(F)c(F)c1Nc1ccc(I)cc1F)CCN(C)CCOCCOCCC(=O)N1CCN(c2nc(N3CCOCC3)nc(-n3c(C(F)F)nc4ccccc43)n2)CC1 [ST-180]	2.21 ± 0.425	–	0.717 ± 0.136	–	0.052 ± 0.0014	0.039 ± 0.009	–	–	Concurrent inhibition in tumor cell lines [14]: Concurrent inhibition was demonstrated
FC(F)c1nc2ccccc2n1-c1nc(N2CCNCC2)nc(N2CCOCC2)n1	–	–	–	–	–	–	–	–	IC50 ([2]; mean ± SEM, read-out: PI3K Subtype Inhibition Activity PI3Kβ): 1.09 ± 0.168 µM; IC50 ([4]; mean ± SEM, read-out: PI3K Subtype Inhibition Activity PI3Kγ): 1.87 ± 0.283 µM
